Assays:
[1] = tested on: H1299; assay: 2D cell proliferation assay (Alamar Blue), H1299; type: cell-based, human; conditions: Homo sapiens, NCI-H1299; 2D, H1299, 72 h; read-out: IC50
From the text: (§1) Nsl-8 was subjected to 2D cell proliferation assays using four NSCLC cell lines (A549 (human adenocarcinomic alveolar basal epithelial cells with k-ras gene mutation), H1299 (human non-small cell lung carcinoma cell line with p53 mutation), H460 (human non-small cell lung carcinoma cell line with k-ras gene mutation), and HCC827 (human NSCLC cells with EGFR mutation of deletion from E746 to A750)) and the results were presented in Table 2. There were eight concentrations used for each drug for determining its IC50. […]. Actinomycin D was a chemotherapeutic drug simply used as a quality control for all the experiments.
(§2) In the 2D cell proliferation assay, cells were cultured in DMEM containing 10% FCS and Penicillin/Streptomycin. For the assays, cells were seeded in 150 μL medium on a 96-well cell culture plate and incubated at 37° C. overnight before the compounds were added. Compounds were prepared as predilution which was 16 fold concentrated to the final assay concentration. A day after cell seeding, 10 μL of prediluted compounds was added to the cells (1:16 dilution). Treatment of cells with 0.1% DMSO or 1% DMSO (for the two top concentrations of nsl-8) and 1.0E-05 M Staurosporine was served as high control (100% viability) and low control (0% viability), respectively. Measurement of the impact of compounds on cell viability was performed as follows: 5000 cells (A549 and HCC827) or 2500 cells (H1299 and H460) were seeded in the inner wells of 96-well-plates in 150 μL complete medium. Next day, compounds were added to the medium to reach the final concentration and then incubated at 37° C. in 5% or 10% CO2 depending on the medium for 72 h. Subsequently 10 μL Alamar Blue reagent was added and fluorescence at 590 nm was measured after 5 h incubation at 37° C. in 5% CO2 using a fluorometer.
(§3) Raw data were converted into percent cell viability relative to high control (solvent 0.1% DMSO or 1% DMSO for the two top concentrations of drug nsl-8) and low control (1.0E-05 M Staurosporine), which were set to 100% and 0%, respectively.

[2] = tested on: H460; assay: 2D cell proliferation assay (Alamar Blue), H460; type: cell-based, human; conditions: Homo sapiens, NCI-H460; 2D, H460, 72 h; read-out: IC50
From the text: as §1, §2, §3

[3] = tested on: HCC827; assay: 2D cell proliferation assay (Alamar Blue), HCC827; type: cell-based, human; conditions: Homo sapiens, HCC827, 72 h
Procedure: (§4) There were eight concentrations used for each drug for determining its IC50. […] Actinomycin D was a chemotherapeutic drug simply used as a quality control for all the experiments.
as §2, with “Compounds were prepared as predilution which was 16 fold concentrated to the final assay concentration.” left out, “h.” for “h. Subsequently 10 μL Alamar Blue reagent was added and fluorescence at 590 nm was measured after 5 h incubation at 37° C. in 5% CO2 using a fluorometer.”
as §3

[4] = tested on: four NSCLC cell lines (A549, H1299, H460, HCC827); assay: 2D cell proliferation assay, summary over the NSCLC cell lines; type: cell-based; conditions: Homo sapiens, span over the four NSCLC cell lines
Procedure: as §4
as §2, with “Compounds were prepared as predilution which was 16 fold concentrated to the final assay concentration.” left out, “h.” for “h. Subsequently 10 μL Alamar Blue reagent was added and fluorescence at 590 nm was measured after 5 h incubation at 37° C. in 5% CO2 using a fluorometer.”
as §3

[5] = tested on: H1299; assay: 3D cell proliferation assay (soft agar), H1299; type: cell-based, human; conditions: Homo sapiens, NCI-H1299, 3D soft agar
Procedure: Drug nsl-8 was further subjected to a 3D cell proliferation assay for assessing its potential in inhibiting the growth of NSCLC tumors. The same four NSCLC cell lines used in 2D proliferation assays were grown in soft agar and the drug was added after the agar has solidified. The drug added cells were then incubated several days until colonies have formed in the solvent control. Subsequently, Alamar Blue which was a cell viability reagent was added and the corresponding fluorescence released was measured as an indirect quantification of colony growth in soft agar.
For each cell line, some 96 well culture plates were prepared. 100 μL of the soft agar bottom layer (0.6% final concentration in complete medium) was poured and left to solidify. 50 μL of the soft agar top layer (0.4% final concentration) containing the corresponding cells and cell number were then added on top, solidified and such 96 well plates were incubated overnight at 37° C. in 10% CO2. Next day, drugs were added at indicated final concentrations into the inner wells of the plate. Subsequently, the assays were incubated in cell culture incubators for the indicated period of time. Finally, the assays were developed using Alamar Blue and upon 3-5 h of incubation at 37 ° C. fluorescence intensity was determined (excitation: 560 nm, emission: 590 nm). […]

[6] = tested on: A549 implanted tumors; assay: Subcutaneous A549 xenograft model, groups 1a/1b, i.p.; type: in vivo, BALB/c nude mice; conditions: 40 mg/kg i.p. once daily, after treatment days 48-52
Procedure: All experiments were performed using either 5-6 weeks old female BALB/c nude mice (approximate weight: 16-20 g) (A549) or female SCID mice (approximate weight: 16-20 g) (A549 and HCC827). […] Animal behaviour was monitored daily.
At necropsy, animals were killed by cervical dislocation. Primary tumor weights and volumes were determined.
The treatment for groups 1a and 1b (A549 model) animals with drug nsl-8 was started on day 48 and terminated on day 69. The animals were not consecutively treated with nsl-8 during the entire treatment period of 48-68 days. Instead, there was an interruption between treatment days 48-52 and 62-66 (FIG. 4) due to an apparent weight loss observed in the treated animals, an ethical reason which caused the treatment to be suspended. […] However, the animals were able to recover from such a weight loss after several days of cessation of treatment (FIG. 5). After weight loss of treated animals was recovered, a second treatment cycle from days 62-66 was resumed (FIG. 5). This second treatment cycle caused weight loss again (FIG. 5). However, the study groups 1a and 1b were both terminated on day 69 due to the presence of tumor ulceration in some animals. Note that weight loss in animals treated with vehicle was also observed in the final stage of treatment (FIG. 5). We speculated that such a loss might be caused by the presence of 10% DMSO in the prepared vehicle. […]

- IC50 [1]: 6.5 µM
- IC50 [2]: 2 µM
- IC50 [3]: 11 µM
- IC50 [4]: 2 to 11 µM
- IC50 [5]: 13 µM
- weight loss in animals [6]: 16%
Structure (SMILES): COc1ccc(-c2ccc3cc(C(=O)O)ccc3c2)cc1C12CC3CC(CC(C3)C1)C2 [nsl-8, 6-[3-(1-adamantyl)-4-methoxyphenyl]-2-naphthalenecarboxylic acid]

— patent publication US20160113895A1, “Novel Use of Adapalene in Treating Esophageal Cancer and Gastrointestinal Stromal Tumor” (Biodelight Biotech Inc., priority 2013, published 2016)
